The structures appear in SMILES notation. Converted amounts (≈) assume the structure as drawn. “And” between values parts separate entries of the source, which are not always exact repeats. Identical values can stand only once. Counter-ions that a name gives are not always drawn. Like-named read-outs stand apart in the source and are kept apart here. Bounds are passed on as bounds.

These results are taken from article PMC9408963 (International Journal of Molecular Sciences, 2022).

Series [1] deals with Xanthomonas oryzae pv. oryzae (Xoo). Description: microbe, parasite or virus in culture. In kind it is cell-based. To be noted: for MIC: Xanthomonas oryzae.
Series [2] has the same test system. The experiment in a line: microbe, parasite or virus in culture. The series is classed as cell-based. To be noted: for EC50 / inhibition at 20 µg/mL / inhibition at 100 µg/mL: Xanthomonas oryzae; for EC50: read-out: EC50 for inhibition of Xoo growth; for inhibition at 20 µg/mL / inhibition at 100 µg/mL: read-out: Inhibition (%) of Xoo growth.
The test system of a further series is rice plants. The following applies: in vivo.
For series [3], the system named is XooFtsZ. The series is classed as binding, Xanthomonas oryzae pv. oryzae. The following applies: pH 7.4.
In series [4] the target is T1, recombinant XooFtsZ GTPase (Xanthomonas oryzae pv. oryzae, UniProt A0ACG7R862). Description: biochemical. To be noted: for inhibition at 100 µM / inhibition at 200 µM: read-out: Inhibition Rate (%) of XooFtsZ GTPase activity.
A short description of the next series: in vitro. To be noted: rat.
The test system of series [5] is human non-small cell lung cancer cell line (A549).
For series [6], the system named is rice bacterial leaf blight infected by Xoo. In kind it is in vivo. Set-up: curative control efficiency against rice bacterial leaf blight: dose or concentration left out as unconfirmed.
For series [7], the system named is XooFtsZ. The series is classed as biochemical, Xanthomonas oryzae pv. oryzae. The following applies: TEM, 20 μM XooFtsZ, 100 and 200 μM compound.
Another series deals with Xoo cells. In kind it is cell-based, Xanthomonas oryzae pv. oryzae. To be noted: TEM. Set-up: average Xoo cell length: unit not given here.
Series [8] concerns the target T1, recombinant XooFtsZ GTPase. The following applies: read-out: IC50 XooFtsZ GTPase activity; cited from earlier work.
Series [9] concerns rice bacterial leaf blight infected by Xoo. To be noted: in vivo; cited from earlier work.
[10] abbreviates: read-out: MIC against Xoo, in vitro.

Consider `COc1cc(C2c3cc4c(cc3C(O)C3COC(=O)C23)OCO4)cc(OC)c1OCC1CO1` (stereo not shown) [A1], for which the MIC in series [1] (setting [10]) was over 400 µg/mL. In series [2], the EC50 is over 200 µg/mL, the inhibition at 20 µg/mL is 10.6 ± 0.9% and the inhibition at 100 µg/mL turned out to be 18.3 ± 2.15%.
The corresponding values for `CCC(CC)C(=O)Oc1c(OC)cc(C2c3cc4c(cc3C(O)C3COC(=O)C23)OCO4)cc1OC` (stereo not shown) [B1] are over 400 µg/mL, over 200 µg/mL, 5.33 ± 1.13% and 17.4 ± 6%.
In the case of `CCCCC(CC)C(=O)Oc1c(OC)cc(C2c3cc4c(cc3C(O)C3COC(=O)C23)OCO4)cc1OC` (stereo not shown) [B2], the “phytotoxicity to rice plants” value in the series on rice plants is on record as “non-toxic”. Moreover, in the series with XooFtsZ [3] (10 μM XooFtsZ, 25 °C), the “Stern–Volmer quenching constant Kq” value is on record as 3.845 × 10^11 M^−1 S^−1 and the “Stern–Volmer quenching constant Ksv” value stood at 3845 M⁻¹. For the same molecule, in series [4], the IC50 was determined as 159 ± 16.7 µM, the inhibition at 100 µM stood at 48.6 ± 4.1% and the inhibition at 200 µM turned out to be 54.8 ± 5.2%. In “in vitro”, this molecule displayed an IC50 of 60.8 µM. Also, the “cytotoxicity (comparison)” value in series [5] is “more cytotoxic than either DMEP or gefitinib”. In series [6] (pot experiments), the “curative control efficiency against rice bacterial leaf blight” value (from here on “curative control efficiency”) came out at 54.9% and the “protective control efficiency against rice bacterial leaf blight” value (from here on “protective control efficiency”) was determined as 48.4%. In addition, the “effect on XooFtsZ self-assembly” value in the series with XooFtsZ [7] was “fewer single-stranded protofilaments and an increase in disordered and disorganized protein aggregation”. Moreover, in the series with Xoo cells (100 mg L^−1, 12 h), the “average Xoo cell length” value is reported as 4.03 ± 2.20. The “average Xoo cell length” value in the series on Xoo cells (100 mg L^−1, 24 h) is 5.86 ± 3.23. In [2], the EC50 worked out at 153 ± 9.2 µg/mL (≈ 291 µM), the inhibition at 20 µg/mL is 7.3 ± 2.2% and the inhibition at 100 µg/mL came out at 44.2 ± 3.2%.
In the case of `COc1cc(C2c3cc4c(cc3C(O)C3COC(=O)C23)OCO4)cc(OC)c1OS(=O)(=O)c1ccc(C)cc1` (stereo not shown) [B3], the MIC in [1] (setting [10]) was over 400 µg/mL. Besides, in series [2], the EC50 was over 200 µg/mL, the inhibition at 20 µg/mL stood at 4.33 ± 0.8% and the inhibition at 100 µg/mL worked out at 10.2 ± 1.2%.
Regarding `S=c1[nH]nc(NCNc2n[nH]c(=S)s2)s1` [BT, bismerthiazol], the “MIC against Xoo” value in series [1] (in vitro) amounted to 50 µg/mL (≈ 180 µM). The “Inhibition (%) of Xoo growth” value in series [2] (20 mg L^−1) turned out to be 30.0 ± 2.20%; in series [2] (100 mg L^−1), 92.7 ± 1.70%. Moreover, the “EC50 for inhibition of Xoo growth” value in [2] (in vitro) stood at 36.3 ± 2.50 µg/mL.
As to `COc1ccc2cc3[n+](cc2c1OC)CCc1cc2c(cc1-3)OCO2` [Berberine, Berberine hydrochloride], in the series with XooFtsZ [3] (10 μM XooFtsZ, 25 °C), the “Stern–Volmer quenching constant Kq” value is given as 1.789 × 10^12 M^−1 S^−1 and the “Stern–Volmer quenching constant Ksv” value turned out to be 17890 M⁻¹. In [4], the IC50 was 225 ± 18.5 µM, the inhibition at 100 µM worked out at 34.1 ± 2.6% and the inhibition at 200 µM was found to be 48.7 ± 4.1%.
On to `COc1cc(C2c3cc4c(cc3C(O)C3COC(=O)C23)OCO4)cc(OC)c1O` (stereo not shown) [DMEOP, 4′-demethylpodophyllotoxin], for which, in the series with XooFtsZ [3], the “Stern–Volmer quenching constant Kq” value was 1.757 × 10^11 M^−1 S^−1 and the “Stern–Volmer quenching constant Ksv” value stood at 1757 M⁻¹. The “MIC against Xoo” value in series [1] was over 400 µg/mL. For the same molecule, the “EC50 for inhibition of Xoo growth” value in series [2] is over 200 µg/mL.
Regarding `COc1cc([C@@H]2c3cc4c(cc3[C@@H](O)[C@H]3COC(=O)[C@H]23)OCO4)cc(OC)c1O` [DMEP, 4′-demethylepipodophyllotoxin], the IC50 in [8] was 279 µM and 278 µM. In the series with XooFtsZ [3], the “Stern–Volmer quenching constant Kq” value is 7.593 × 10^11 M^−1 S^−1 and the “Stern–Volmer quenching constant Ksv” value stood at 7593 M⁻¹. For the same molecule, in [9], the “curative control efficiency” value is reported as 50.0% and the “protective control efficiency” value was 46.8%. In series [1], the “MIC against Xoo” value amounted to 50 µg/mL (≈ 125 µM). Further, the “EC50 for inhibition of Xoo growth” value in [2] is 39.7 µg/mL and 38.7 µg/mL.
Take `COc1cc([C@@H]2c3cc4c(cc3C[C@H]3COC(=O)[C@@H]32)OCO4)cc(OC)c1OC` [Deoxypodophyllotoxin]: in the series with XooFtsZ [3] (10 μM XooFtsZ, 25 °C), the “Stern–Volmer quenching constant Kq” value was 2.276 × 10^11 M^−1 S^−1 and the “Stern–Volmer quenching constant Ksv” value came to 2276 M⁻¹. Further, in series [1] (setting [10]), the MIC is over 400 µg/mL. Also, in series [2], the EC50 is over 200 µg/mL, the inhibition at 20 µg/mL was found to be 12.2 ± 4.8% and the inhibition at 100 µg/mL is 10.3 ± 3.5%.
Regarding `COc1cc([C@@H]2c3cc4c(cc3[C@@H](O[C@@H]3O[C@@H]5CO[C@@H](C)O[C@H]5[C@H](O)[C@H]3O)[C@H]3COC(=O)[C@H]23)OCO4)cc(OC)c1O` [Etoposide], in the series with XooFtsZ [3] (10 μM XooFtsZ, 25 °C), the “Stern–Volmer quenching constant Kq” value is 2.396 × 10^11 M^−1 S^−1 and the “Stern–Volmer quenching constant Ksv” value turned out to be 2396 M⁻¹. The MIC in series [1] (setting [10]) is over 400 µg/mL. The “effect on Xoo cell morphology” value in the series on Xoo cells (100 mg L^−1, 24 h) was “induced cellular elongation”. In series [2], the EC50 is over 200 µg/mL and the inhibition at 100 µg/mL is 18.8 ± 9.6%.
Consider `COc1cc([C@@H]2c3cc4c(cc3[C@H](O)[C@H]3COC(=O)[C@@H]23)OCO4)cc(OC)c1OC` [Picropodophyllotoxin], for which, in the series with XooFtsZ [3], the “Stern–Volmer quenching constant Kq” value was 3.603 × 10^11 M^−1 S^−1 and the “Stern–Volmer quenching constant Ksv” value is 3603 M⁻¹. Moreover, the MIC in [1] (read-out: MIC against Xoo) was over 400 µg/mL. In series [2], the EC50 is over 200 µg/mL.
As to `COc1cc([C@@H]2c3cc4c(cc3[C@H](O)[C@H]3COC(=O)[C@H]23)OCO4)cc(OC)c1OC` [Podophyllotoxin], in the series with XooFtsZ [3], the “Stern–Volmer quenching constant Kq” value is recorded as 2.203 × 10^11 M^−1 S^−1 and the “Stern–Volmer quenching constant Ksv” value was 2203 M⁻¹. The MIC in [1] (read-out: MIC against Xoo) was over 400 µg/mL. Moreover, the EC50 in series [2] was over 200 µg/mL.
On to `Nc1nnc([S-])s1.Nc1nnc([S-])s1.[Cu+2]` [TC, Thiodiazole copper], for which, in [6] (in vivo), the “curative control efficiency” value is listed as 31.2% and the “protective control efficiency” value stood at 30.4%.
For `COc1cc([C@@H]2c3cc4c(cc3[C@@H](O[C@@H]3O[C@@H]5CO[C@@H](c6cccs6)O[C@H]5[C@H](O)[C@H]3O)[C@H]3COC(=O)[C@H]23)OCO4)cc(OC)c1O` [Teniposide], in the series with XooFtsZ [3] (10 μM XooFtsZ, 25 °C), the “Stern–Volmer quenching constant Kq” value is listed as 2.920 × 10^11 M^−1 S^−1 and the “Stern–Volmer quenching constant Ksv” value turned out to be 2920 M⁻¹. Besides, the MIC in [1] (setting [10]) is over 400 µg/mL. The “effect on Xoo cell morphology” value in the series with Xoo cells (100 mg L^−1, 24 h) is reported as “induced cellular elongation”. Moreover, in series [2], the EC50 is over 200 µg/mL and the inhibition at 100 µg/mL was 20.3 ± 9.21%.

By EC50 is commonly meant the concentration at which the effect is half-maximal. As usually defined, the inhibition is the relative decrease from the control value, in per cent. Usually IC50 stands for the concentration needed to halve the response being measured.
